Assay: Human HepG2 cell viability assay in 384 well format
Format: toxicity, cell-based
Design: dose 125 nL, time 70.5 hour; cytotoxicity at 70.5 h: concentration not given beside the values
Details: HepG2 cells, read-out: Inhibition

Work on `COCCN1CCC2(CCCN(c3ncc(F)cn3)C2)C1` (centres undefined) yielded a cytotoxicity at 70.5 h of -3.02%.

`Cc1ncnc2c1CCN(CC1CCOC1)CC2` (centres undefined) gave a cytotoxicity at 70.5 h of -8.05%.

`CCNC(=O)C1CCN(c2nc(-c3ccco3)nc3c2CCNCC3)C1` (centres undefined) showed a cytotoxicity at 70.5 h of -7.78%.

Molecule `O=C1[C@H]2CN(C3CCOCC3)C[C@H]2CN1Cc1cccc(F)c1` has a cytotoxicity at 70.5 h of 0.427%.

Work on `Cc1csc(CNC(=O)NC(C)c2ccc3c(c2)CCC(=O)N3)n1` (centres undefined) yielded a cytotoxicity at 70.5 h of -5.74%.

Work on `CCS(=O)(=O)N1Cc2[nH]nc(COCc3cccnc3)c2C1` yielded a cytotoxicity at 70.5 h of -2.23%.

Work on `COCCN1C(=O)CC[C@@H]2[C@@H]1CCN2S(=O)(=O)C1CC1` yielded a cytotoxicity at 70.5 h of -3.21%.

`Cn1ccnc1C(=O)NC[C@H]1OC[C@@H]2CCN(S(C)(=O)=O)C[C@@H]21` gave a cytotoxicity at 70.5 h of 21.4%.

Molecule `CC(C)NC(=O)N1CC[C@@H](N(C)C)[C@@H]1Cc1ccncc1` has a cytotoxicity at 70.5 h of -6.16%.

`O=C([C@@H]1CCCO1)N1CCN(Cc2ccncc2)c2ncccc2C1` gave a cytotoxicity at 70.5 h of -0.675%.

Work on `Cc1nc(CNC(=O)NC2CCN(c3ncccn3)CC2)cs1` yielded a cytotoxicity at 70.5 h of -6.89%.

With `Cc1cnc(C(=O)N2CCN(c3ncc4c(n3)CCOC4)CC2)cn1` the cytotoxicity at 70.5 h was -1.26%.

Work on `CC(C)N1[C@H](Cn2cccn2)C[C@@H]2CN(Cc3ccoc3)CC[C@@H]21` yielded a cytotoxicity at 70.5 h of -13.4%.

For `CN(C)C(=O)N1CCN(Cc2noc(Cc3ccccc3)n2)CC1`, the cytotoxicity at 70.5 h was -5.82%.

`CCOC(=O)C1CC2(CCCCC2)N2CCC(=O)N12` (centres undefined) showed a cytotoxicity at 70.5 h of -4.11%.

For `CCc1noc(CNc2ccc(C(=O)N3CCCC(C)C3)cc2C)n1` (centres undefined), the cytotoxicity at 70.5 h was -10.5%.

Work on `CNc1cc(N2CCCC2CNCc2cccnc2)ncn1` (centres undefined) yielded a cytotoxicity at 70.5 h of 4.98%.

With `CC(C(N)=O)N(C)CCCc1cc(-c2ccc(F)cc2)n(C)n1` (centres undefined) the cytotoxicity at 70.5 h was -9.74%.

With `CCn1cnnc1CNC(=O)N1CCN(c2cccs2)CC1` the cytotoxicity at 70.5 h was 25.1%.

In the case of `CN1CCN(C[C@@H]2OC[C@H]3CN(Cc4ccsc4)CC[C@H]32)CC1`, the cytotoxicity at 70.5 h is reported as -4.59%.

`CN1C(=O)[C@H]2CC[C@@H]1CN(C(=O)c1sccc1S(N)(=O)=O)C2` gave a cytotoxicity at 70.5 h of -4.92%.

`CCc1oc(C(=O)OC)cc1Cn1cccc(C(F)(F)F)c1=O` gave a cytotoxicity at 70.5 h of -1.62%.

With `CCc1n[nH]c(C2CN(C(=O)c3ccc(Cl)cn3)CCO2)n1` (centres undefined) the cytotoxicity at 70.5 h was -8.84%.

For `CCC1CN(C(=O)c2cc(CN(C)CCc3ccccc3)on2)CCO1` (centres undefined), the cytotoxicity at 70.5 h was -7.15%.

Work on `CN(C)c1nccc(C2CCN(C3CCCCC3O)CC2)n1` (centres undefined) yielded a cytotoxicity at 70.5 h of 21.1%.

Molecule `CC(C)C(=O)NS(=O)(=O)c1ccc(F)c(C(F)(F)F)c1` has a cytotoxicity at 70.5 h of -10.6%.

Work on `N#CCC(=O)NCc1nnc2n1CCN(Cc1ccco1)C2` yielded a cytotoxicity at 70.5 h of -13%.

Molecule `Cc1ccc(C(=O)N2CCC(c3noc(-c4cccnc4)n3)CC2)cn1` has a cytotoxicity at 70.5 h of -3.32%.

With `COCCn1c2c(ccc1=O)CCN(C(=O)CC1CC1)CC2` the cytotoxicity at 70.5 h was -2.25%.

With `COc1ncccc1C(=O)N1CCCC(c2cc(C)[nH]n2)C1` (centres undefined) the cytotoxicity at 70.5 h was -2.72%.

In the case of `CCC(C)n1c(SCC(=O)N2CCOCC2)nc2cc(C)[nH]c2c1=O` (centres undefined), the cytotoxicity at 70.5 h is reported as 13.3%.

Work on `COCC1c2nnn(CC3CC3)c2CCN1C(=O)CS(C)(=O)=O` (centres undefined) yielded a cytotoxicity at 70.5 h of -12.6%.

In the case of `CCC1=N[C@@]2(CC[C@@H]3CN(Cc4ccccc4F)C[C@@H]32)C(=O)N1`, the cytotoxicity at 70.5 h is reported as -6.13%.

In the case of `Cc1ccc(C(CNC(=O)NCc2ccccn2)N2CCOCC2)o1` (centres undefined), the cytotoxicity at 70.5 h is reported as 13.1%.

For `Cc1cc(NCCc2nc(C)c[nH]2)nc(-c2ccccc2O)n1`, the cytotoxicity at 70.5 h was -1.72%.

`c1cc2nc(C3CCN(CC4CC4)CC3)nn2cc1N1CCCC1` gave a cytotoxicity at 70.5 h of -4.49%.

Work on `c1ccc(-n2cc(CN3CCCC3Cn3cncn3)nn2)cc1` (centres undefined) yielded a cytotoxicity at 70.5 h of -1.22%.

`Nc1nccnc1C(=O)N(Cc1ccco1)CC1CCCO1` (centres undefined) gave a cytotoxicity at 70.5 h of -2.09%.

`N#Cc1cn[nH]c1NCc1cc(I)cc(I)c1O` gave a cytotoxicity at 70.5 h of -9.83%.

In the case of `CC(C)n1c(C2CCCN(CC(N)=O)C2)nc2ccccc21` (centres undefined), the cytotoxicity at 70.5 h is reported as -1.68%.

Molecule `Cc1ccc2c(c1)OCCCC2NCc1nccn1CC(C)C` (centres undefined) has a cytotoxicity at 70.5 h of -7.28%.

In the case of `CCOCC1CN(C(=O)c2ccoc2C)Cc2cnn(C)c21` (centres undefined), the cytotoxicity at 70.5 h is reported as 28.1%.

Work on `O=S(=O)(c1c(Cl)nc2sccn12)N1CCCC2(CCNC2)C1` (centres undefined) yielded a cytotoxicity at 70.5 h of -7.18%.

`Cc1cnn(CC2CCCN2C(=O)c2cccc3c2OCO3)c1` (centres undefined) gave a cytotoxicity at 70.5 h of -5.23%.

From ChEMBL document CHEMBL3507680, “University of Dundee, Gates Library screen for HepG2 cell viability”
